{"source": "patent US4471131A", "about": "“Novel silyl esters of N-phosphonomethylglycine” (Monsanto Company, priority 1983, dated 1984)", "assay_in_all_cases": "post-emergence herbicidal activity, greenhouse", "assay_type_in_all_cases": "in vivo", "key": {"Rice": {"system": "Rice", "conditions": "Table III", "outline": "(§1)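 Using pans of compacted topsoil, seeds were pressed in, covered, and grown on a greenhouse sand bench with subirrigation. Once two to three weeks old, plants were sprayed individually in a chamber; pans then returned to the greenhouse, and injury versus controls was noted around 2 and 4 WAT.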"}, "Wild Buckwheat": {"system": "Wild Buckwheat", "conditions": "Table III", "outline": "as §1"}, "Morningglory": {"system": "Morningglory", "outline": "as §1"}, "Cocklebur": {"system": "Cocklebur", "outline": "as §1"}, "[1]": {"conditions": "2 WAT, 1.1 kg/h, formulated in anhydrous tetrahydrofuran"}, "[2]": {"conditions": "2 WAT, 5.6 kg/h, formulated in anhydrous tetrahydrofuran"}, "[3]": {"conditions": "2 WAT, .28 kg/h, formulated in anhydrous tetrahydrofuran"}, "[4]": {"conditions": "4 WAT, 1.1 kg/h, formulated in anhydrous tetrahydrofuran"}, "[5]": {"conditions": "4 WAT, 5.6 kg/h, formulated in anhydrous tetrahydrofuran"}, "[6]": {"conditions": "4 WAT, .28 kg/h, formulated in anhydrous tetrahydrofuran"}, "[7]": {"conditions": "Table II, 2 WAT, 5.6 kg/h, formulated in anhydrous tetrahydrofuran"}, "[8]": {"conditions": "Table II, 2 WAT, 11.2 kg/h, formulated in anhydrous tetrahydrofuran"}, "[9]": {"conditions": "Table II, 4 WAT, 5.6 kg/h, formulated in anhydrous tetrahydrofuran"}, "[10]": {"conditions": "Table II, 4 WAT, 11.2 kg/h, formulated in anhydrous tetrahydrofuran"}, "[11]": {"conditions": "Table III, 2 WAT, 1.1 kg/h, formulated in anhydrous tetrahydrofuran"}, "[12]": {"conditions": "Table III, 2 WAT, 5.6 kg/h, formulated in anhydrous tetrahydrofuran"}, "[13]": {"conditions": "Table III, 2 WAT, .28 kg/h, formulated in anhydrous tetrahydrofuran"}, "[14]": {"conditions": "Table III, 4 WAT, 1.1 kg/h, formulated in anhydrous tetrahydrofuran"}, "[15]": {"conditions": "Table III, 4 WAT, 5.6 kg/h, formulated in anhydrous tetrahydrofuran"}}, "data": [{"compound": "CCOC(=O)CNCP(=O)(O)O[Si](c1ccccc1)(c1ccccc1)C(C)(C)C", "note": "[Ex. 7, Glycine, N--((([(1,1-Dimethylethyl)Diphenylsilyl]Oxy)Hydroxyphosphinyl)Methyl)-,Ethyl Ester]", "values": [{"measurement": "Plant Response Index (O)", "setting": "Rice; 2 WAT, 1.1 kg/h", "value": "2 (50-74% inhibition)"}, {"measurement": "Plant Response Index (O)", "setting": "Rice; [1]", "value": "1 (25-49% inhibition)"}, {"measurement": "Plant Response Index (O)", "setting": "Rice; 2 WAT, 5.6 kg/h", "value": "2 (50-74% inhibition)"}, {"measurement": "Plant Response Index (O)", "setting": "Rice; [2]", "value": "3 (75-99% inhibition)"}, {"measurement": "Plant Response Index (O)", "setting": "Rice; 2 WAT, .28 kg/h", "value": "2 (50-74% inhibition)"}, {"measurement": "Plant Response Index (O)", "setting": "Rice; [3]", "value": "1 (25-49% inhibition)"}, {"measurement": "Plant Response Index (O)", "setting": "Rice; 4 WAT, 1.1 kg/h", "value": "3 (75-99% inhibition)"}, {"measurement": "Plant Response Index (O)", "setting": "Rice; [4]", "value": "1 (25-49% inhibition)"}, {"measurement": "Plant Response Index (O)", "setting": "Rice; 4 WAT, 5.6 kg/h", "value": "3 (75-99% inhibition)"}, {"measurement": "Plant Response Index (O)", "setting": "Rice; [5]", "value": "3 (75-99% inhibition)"}, {"measurement": "Plant Response Index (O)", "setting": "Rice; 4 WAT, .28 kg/h", "value": "1 (25-49% inhibition)"}, {"measurement": "Plant Response Index (O)", "setting": "Rice; [6]", "value": "0 (0-24% inhibition)"}, {"measurement": "Plant Response Index (Q)", "setting": "Wild Buckwheat; 2 WAT, 1.1 kg/h", "value": "2 (50-74% inhibition)"}, {"measurement": "Plant Response Index (Q)", "setting": "Wild Buckwheat; [1]", "value": "2 (50-74% inhibition)"}, {"measurement": "Plant Response Index (Q)", "setting": "Wild Buckwheat; 2 WAT, 5.6 kg/h", "value": "2 (50-74% inhibition)"}, {"measurement": "Plant Response Index (Q)", "setting": "Wild Buckwheat; [2]", "value": "3 (75-99% inhibition)"}, {"measurement": "Plant Response Index (Q)", "setting": "Wild Buckwheat; 2 WAT, .28 kg/h", "value": "2 (50-74% inhibition)"}, {"measurement": "Plant Response Index (Q)", "setting": "Wild Buckwheat; [3]", "value": "1 (25-49% inhibition)"}, {"measurement": "Plant Response Index (Q)", "setting": "Wild Buckwheat; 4 WAT, 1.1 kg/h", "value": "2 (50-74% inhibition)"}, {"measurement": "Plant Response Index (Q)", "setting": "Wild Buckwheat; [4]", "value": "2 (50-74% inhibition)"}, {"measurement": "Plant Response Index (Q)", "setting": "Wild Buckwheat; 4 WAT, 5.6 kg/h", "value": "3 (75-99% inhibition)"}, {"measurement": "Plant Response Index (Q)", "setting": "Wild Buckwheat; [5]", "value": "3 (75-99% inhibition)"}, {"measurement": "Plant Response Index (Q)", "setting": "Wild Buckwheat; 4 WAT, .28 kg/h", "value": "2 (50-74% inhibition)"}, {"measurement": "Plant Response Index (Q)", "setting": "Wild Buckwheat; [6]", "value": "1 (25-49% inhibition)"}, {"measurement": "Plant Response Index (D)", "setting": "Morningglory; Table II, 2 WAT, 5.6 kg/h", "value": "2 (50-74% inhibition)"}, {"measurement": "Plant Response Index (D)", "setting": "Morningglory; [7]", "value": "2 (50-74% inhibition)"}, {"measurement": "Plant Response Index (D)", "setting": "Morningglory; Table II, 2 WAT, 11.2 kg/h", "value": "2 (50-74% inhibition)"}, {"measurement": "Plant Response Index (D)", "setting": "Morningglory; [8]", "value": "1 (25-49% inhibition)"}, {"measurement": "Plant Response Index (D)", "setting": "Morningglory; Table II, 4 WAT, 5.6 kg/h", "value": "2 (50-74% inhibition)"}, {"measurement": "Plant Response Index (D)", "setting": "Morningglory; [9]", "value": "2 (50-74% inhibition)"}, {"measurement": "Plant Response Index (D)", "setting": "Morningglory; Table II, 4 WAT, 11.2 kg/h", "value": "2 (50-74% inhibition)"}, {"measurement": "Plant Response Index (D)", "setting": "Morningglory; [10]", "value": "2 (50-74% inhibition)"}, {"measurement": "Plant Response Index (D)", "setting": "Morningglory; Table III, 2 WAT, 1.1 kg/h", "value": "2 (50-74% inhibition)"}, {"measurement": "Plant Response Index (D)", "setting": "Morningglory; [11]", "value": "2 (50-74% inhibition)"}, {"measurement": "Plant Response Index (D)", "setting": "Morningglory; Table III, 2 WAT, 5.6 kg/h", "value": "2 (50-74% inhibition)"}, {"measurement": "Plant Response Index (D)", "setting": "Morningglory; [12]", "value": "2 (50-74% inhibition)"}, {"measurement": "Plant Response Index (D)", "setting": "Morningglory; Table III, 2 WAT, .28 kg/h", "value": "2 (50-74% inhibition)"}, {"measurement": "Plant Response Index (D)", "setting": "Morningglory; [13]", "value": "1 (25-49% inhibition)"}, {"measurement": "Plant Response Index (D)", "setting": "Morningglory; Table III, 4 WAT, 1.1 kg/h", "value": "2 (50-74% inhibition)"}, {"measurement": "Plant Response Index (D)", "setting": "Morningglory; [14]", "value": "2 (50-74% inhibition)"}, {"measurement": "Plant Response Index (D)", "setting": "Morningglory; Table III, 4 WAT, 5.6 kg/h", "value": "3 (75-99% inhibition)"}, {"measurement": "Plant Response Index (D)", "setting": "Morningglory; [15]", "value": "3 (75-99% inhibition)"}, {"measurement": "Plant Response Index (D)", "setting": "Morningglory; Table III, 4 WAT, .28 kg/h", "value": "1 (25-49% inhibition)"}, {"measurement": "Plant Response Index (D)", "setting": "Morningglory; Table III, 4 WAT, .28 kg/h, formulated in anhydrous tetrahydrofuran", "value": "1 (25-49% inhibition)"}, {"measurement": "Plant Response Index (B)", "setting": "Cocklebur; Table II, 2 WAT, 5.6 kg/h", "value": "3 (75-99% inhibition)"}, {"measurement": "Plant Response Index (B)", "setting": "Cocklebur; [7]", "value": "2 (50-74% inhibition)"}, {"measurement": "Plant Response Index (B)", "setting": "Cocklebur; Table II, 2 WAT, 11.2 kg/h", "value": "2 (50-74% inhibition)"}, {"measurement": "Plant Response Index (B)", "setting": "Cocklebur; [8]", "value": "1 (25-49% inhibition)"}, {"measurement": "Plant Response Index (B)", "setting": "Cocklebur; Table II, 4 WAT, 5.6 kg/h", "value": "4 (100% inhibition)"}, {"measurement": "Plant Response Index (B)", "setting": "Cocklebur; [9]", "value": "3 (75-99% inhibition)"}, {"measurement": "Plant Response Index (B)", "setting": "Cocklebur; Table II, 4 WAT, 11.2 kg/h", "value": "4 (100% inhibition)"}, {"measurement": "Plant Response Index (B)", "setting": "Cocklebur; [10]", "value": "3 (75-99% inhibition)"}, {"measurement": "Plant Response Index (B)", "setting": "Cocklebur; Table III, 2 WAT, 1.1 kg/h", "value": "2 (50-74% inhibition)"}, {"measurement": "Plant Response Index (B)", "setting": "Cocklebur; [11]", "value": "2 (50-74% inhibition)"}, {"measurement": "Plant Response Index (B)", "setting": "Cocklebur; Table III, 2 WAT, 5.6 kg/h", "value": "2 (50-74% inhibition)"}, {"measurement": "Plant Response Index (B)", "setting": "Cocklebur; [12]", "value": "3 (75-99% inhibition)"}, {"measurement": "Plant Response Index (B)", "setting": "Cocklebur; Table III, 2 WAT, .28 kg/h", "value": "1 (25-49% inhibition)"}, {"measurement": "Plant Response Index (B)", "setting": "Cocklebur; [13]", "value": "2 (50-74% inhibition)"}, {"measurement": "Plant Response Index (B)", "setting": "Cocklebur; Table III, 4 WAT, 1.1 kg/h", "value": "3 (75-99% inhibition)"}, {"measurement": "Plant Response Index (B)", "setting": "Cocklebur; [14]", "value": "2 (50-74% inhibition)"}, {"measurement": "Plant Response Index (B)", "setting": "Cocklebur; Table III, 4 WAT, 5.6 kg/h", "value": "3 (75-99% inhibition)"}, {"measurement": "Plant Response Index (B)", "setting": "Cocklebur; [15]", "value": "3 (75-99% inhibition)"}]}]}
